From article PMC10343225, “Investigating the Vital Role of the Identified Abietic Acid from Helianthus annuus L. Calathide Extract against Hyperuricemia via Human Embryonic Kidney 293T Cell Model” (Molecules, 2023)

Target: T1, xanthine oxidase (XO) (Bos taurus, UniProt P80457)
T1 construct: gene XDH
Experiment: spectrophotometric xanthine oxidase assay, uric acid formation at […] nm (XO from Roche)
Type: biochemical

T1 sequence (P80457 2-1332): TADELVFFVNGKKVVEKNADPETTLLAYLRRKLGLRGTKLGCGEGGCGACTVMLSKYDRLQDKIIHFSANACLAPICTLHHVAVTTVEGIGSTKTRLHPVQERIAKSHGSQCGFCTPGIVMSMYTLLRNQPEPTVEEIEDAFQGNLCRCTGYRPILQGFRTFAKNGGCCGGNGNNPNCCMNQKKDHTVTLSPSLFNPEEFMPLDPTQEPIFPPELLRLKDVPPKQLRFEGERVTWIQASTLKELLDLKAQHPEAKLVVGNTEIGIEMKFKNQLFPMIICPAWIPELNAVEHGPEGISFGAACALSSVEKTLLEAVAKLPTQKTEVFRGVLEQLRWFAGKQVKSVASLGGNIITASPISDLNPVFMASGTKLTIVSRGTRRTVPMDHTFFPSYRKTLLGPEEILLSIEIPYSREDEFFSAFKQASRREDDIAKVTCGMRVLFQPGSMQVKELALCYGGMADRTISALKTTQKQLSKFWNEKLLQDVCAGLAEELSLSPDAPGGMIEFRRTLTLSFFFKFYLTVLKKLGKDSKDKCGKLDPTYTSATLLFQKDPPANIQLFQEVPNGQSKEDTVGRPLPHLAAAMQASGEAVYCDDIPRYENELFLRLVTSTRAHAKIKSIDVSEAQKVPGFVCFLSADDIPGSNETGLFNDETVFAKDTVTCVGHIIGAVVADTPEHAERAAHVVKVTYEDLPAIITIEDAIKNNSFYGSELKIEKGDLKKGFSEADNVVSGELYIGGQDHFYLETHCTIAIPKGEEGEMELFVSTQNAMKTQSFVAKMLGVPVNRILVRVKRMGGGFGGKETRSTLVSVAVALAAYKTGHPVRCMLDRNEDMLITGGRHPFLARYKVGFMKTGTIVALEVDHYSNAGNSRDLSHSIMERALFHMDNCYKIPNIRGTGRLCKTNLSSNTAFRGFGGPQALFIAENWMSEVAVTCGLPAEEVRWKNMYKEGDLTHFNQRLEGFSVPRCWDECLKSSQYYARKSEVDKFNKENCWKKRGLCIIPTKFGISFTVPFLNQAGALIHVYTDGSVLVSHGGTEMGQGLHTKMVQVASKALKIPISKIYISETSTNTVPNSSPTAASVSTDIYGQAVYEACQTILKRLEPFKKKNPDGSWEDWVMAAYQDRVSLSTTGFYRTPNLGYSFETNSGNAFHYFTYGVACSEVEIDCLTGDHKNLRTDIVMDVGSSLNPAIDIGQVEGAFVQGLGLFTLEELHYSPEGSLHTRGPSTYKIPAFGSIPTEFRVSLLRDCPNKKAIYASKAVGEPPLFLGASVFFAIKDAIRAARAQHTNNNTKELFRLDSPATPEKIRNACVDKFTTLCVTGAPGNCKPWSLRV

- IC50: 10.6 µM
SMILES: CC(C)C1=CC2=CC[C@@H]3[C@](C)(CCC[C@@]3(C)C(=O)O)[C@H]2CC1 [AA, abietic acid]
